Data from patent US11306101B2 (Celgene Corporation, priority 2019, dated 2022).

Target: T1, CK1α (Homo sapiens, UniProt P48729+Q96SW2)
T1 construct: expressed in transfected cells
Assay: CK1α ePL degradation assay in MDS-L cells
Type: cell-based
Conditions: MDS-L cells expressing ePL-tagged CK1α; for DC50: concentration giving 50% CK1α degradation vs DMSO control; for Y: lowest measured CK1α level normalized to DMSO control
In short: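 Degradation efficiency is reported as Y value, the minimum CK1α level (percent of DMSO control) across doses. Readout used InCELL Hunter luminescent detection after MDS-L cell exposure at 37° C for stated times, doses 10 μM down to 0.0005 μM in 3-fold steps.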

T1 sequence (P48729 whole entry): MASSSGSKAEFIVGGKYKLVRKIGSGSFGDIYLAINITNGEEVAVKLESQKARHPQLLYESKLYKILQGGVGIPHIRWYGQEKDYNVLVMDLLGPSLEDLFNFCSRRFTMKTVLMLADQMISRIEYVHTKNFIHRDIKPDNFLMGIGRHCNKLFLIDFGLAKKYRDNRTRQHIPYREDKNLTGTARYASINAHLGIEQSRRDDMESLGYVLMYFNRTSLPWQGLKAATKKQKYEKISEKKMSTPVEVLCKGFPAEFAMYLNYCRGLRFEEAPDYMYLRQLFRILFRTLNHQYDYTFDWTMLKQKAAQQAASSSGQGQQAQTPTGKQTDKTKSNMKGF
T1 sequence (Q96SW2 whole entry): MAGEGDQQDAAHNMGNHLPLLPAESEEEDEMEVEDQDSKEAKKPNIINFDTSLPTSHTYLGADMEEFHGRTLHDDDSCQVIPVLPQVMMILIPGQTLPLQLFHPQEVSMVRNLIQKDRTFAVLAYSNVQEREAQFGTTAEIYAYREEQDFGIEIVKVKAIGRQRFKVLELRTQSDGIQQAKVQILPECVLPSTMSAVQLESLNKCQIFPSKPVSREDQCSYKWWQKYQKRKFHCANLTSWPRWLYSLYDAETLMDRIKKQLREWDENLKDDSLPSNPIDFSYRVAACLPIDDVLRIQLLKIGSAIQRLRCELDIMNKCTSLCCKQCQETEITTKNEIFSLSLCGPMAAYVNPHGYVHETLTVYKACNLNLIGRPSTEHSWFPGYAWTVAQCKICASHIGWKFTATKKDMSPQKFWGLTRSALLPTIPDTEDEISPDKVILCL
T1 sequence (Q16531 whole entry partner): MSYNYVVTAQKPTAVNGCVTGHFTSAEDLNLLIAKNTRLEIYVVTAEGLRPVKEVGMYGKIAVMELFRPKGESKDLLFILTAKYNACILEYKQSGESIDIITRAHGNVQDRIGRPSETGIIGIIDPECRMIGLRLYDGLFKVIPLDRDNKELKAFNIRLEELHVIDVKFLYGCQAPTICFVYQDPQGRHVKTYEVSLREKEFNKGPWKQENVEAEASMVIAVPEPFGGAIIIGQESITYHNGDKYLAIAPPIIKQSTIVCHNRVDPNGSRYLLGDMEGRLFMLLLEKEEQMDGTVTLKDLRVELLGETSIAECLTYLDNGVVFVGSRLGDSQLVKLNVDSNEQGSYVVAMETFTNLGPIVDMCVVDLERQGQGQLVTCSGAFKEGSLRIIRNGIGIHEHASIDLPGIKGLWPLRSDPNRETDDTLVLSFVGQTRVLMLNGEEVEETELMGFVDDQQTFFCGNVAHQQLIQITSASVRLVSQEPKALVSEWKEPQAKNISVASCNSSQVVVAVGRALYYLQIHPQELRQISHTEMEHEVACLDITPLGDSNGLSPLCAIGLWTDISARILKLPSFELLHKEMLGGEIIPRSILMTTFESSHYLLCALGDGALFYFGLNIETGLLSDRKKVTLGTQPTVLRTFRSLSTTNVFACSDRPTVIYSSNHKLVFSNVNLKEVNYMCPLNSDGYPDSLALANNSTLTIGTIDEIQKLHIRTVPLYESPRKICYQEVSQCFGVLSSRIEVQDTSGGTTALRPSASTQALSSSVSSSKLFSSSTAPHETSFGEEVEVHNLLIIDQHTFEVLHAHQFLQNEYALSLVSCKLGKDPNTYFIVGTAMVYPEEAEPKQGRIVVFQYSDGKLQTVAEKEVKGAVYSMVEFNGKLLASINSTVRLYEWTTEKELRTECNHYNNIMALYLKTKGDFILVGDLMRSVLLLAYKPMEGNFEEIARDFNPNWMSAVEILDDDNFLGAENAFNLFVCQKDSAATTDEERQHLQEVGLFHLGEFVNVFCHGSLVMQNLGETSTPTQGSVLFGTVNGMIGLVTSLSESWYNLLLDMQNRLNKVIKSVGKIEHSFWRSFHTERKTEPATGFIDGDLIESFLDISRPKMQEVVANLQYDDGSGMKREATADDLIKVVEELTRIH

| Structure (SMILES) | DC50 | Y |
| --- | --- | --- |
| O=C1CCC(N2Cc3cc(C(=O)N[C@@H](CC(F)(F)F)c4ccc(F)cc4)ccc3C2=O)C(=O)N1 (stereo partly drawn) [Example 123, 2-(2,6-dioxopiperidin-3-yl)-1-oxo-N-((S)-3,3,3-trifluoro-1-(4-fluorophenyl)propyl)isoindoline-5-carboxamide] | 100 to 500 nM | ** (a Y value (shown as**) of 20%<Y≤35%) |
| CC(C)[C@H](C)NC(=O)c1ccc2c(c1)CN(C1CCC(=O)NC1=O)C2=O (stereo partly shown) [Example 28] | 100 to 500 nM | ** (a Y value (shown as**) of 20%<Y≤35%) |
| O=C1CCC(N2Cc3cc(C(=O)N[C@H]([C@H]4CC[C@H](O)CC4)C(F)(F)F)ccc3C2=O)C(=O)N1 (stereo partly drawn) [Example 56, 2-(2,6-dioxopiperidin-3-yl)-1-oxo-N-((R)-2,2,2-trifluoro-1-((1r,4R)-4-hydroxycyclohexyl)ethyl)isoindoline-5-carboxamide] | 100 to 500 nM | * (a Y value (shown as *) of 0<Y≤20%) |
| CN(C)Cc1cnc([C@@H](NC(=O)c2ccc3c(c2)CN(C2CCC(=O)NC2=O)C3=O)C(F)(F)F)c(Cl)c1 (stereo partly drawn) [Example 202, N-((R)-1-(3-chloro-5-((dimethylamino)methyl)pyridin-2-yl)-2,2,2-trifluoroethyl)-2-(2,6-dioxopiperidin-3-yl)-1-oxoisoindoline-5-carboxamide] | < 100 nM | * (a Y value (shown as *) of 0<Y≤20%) |
| CC(C)(O)C12CC([C@@H](NC(=O)c3ccc4c(c3)CN(C3CCC(=O)NC3=O)C4=O)C(F)(F)F)(C1)C2 (stereo partly drawn) [Example 165, 2-(2,6-dioxopiperidin-3-yl)-1-oxo-N-((R)-2,2,2-trifluoro-1-(3-(2-hydroxypropan-2-yl)bicyclo[1.1.1]pentan-1-yl)ethyl)isoindoline-5-carboxamide] | < 100 nM | * (a Y value (shown as *) of 0<Y≤20%) |
| O=C1CCC(N2Cc3cc(C(=O)N[C@H](CC(F)(F)F)c4ccccc4)ccc3C2=O)C(=O)N1 (stereo partly drawn) [Example 187, 2-(2,6-dioxopiperidin-3-yl)-1-oxo-N-((R)-3,3,3-trifluoro-1-phenylpropyl)isoindoline-5-carboxamide] | 100 to 500 nM | ** (a Y value (shown as**) of 20%<Y≤35%) |
| O=C1CCC(N2Cc3cc(C(=O)N[C@@H](C(F)(F)F)C4(C(F)(F)F)CC4)ccc3C2=O)C(=O)N1 (stereo partly drawn) [Example 75, 2-(2,6-dioxopiperidin-3-yl)-1-oxo-N-((R)-2,2,2-trifluoro-1-(1-(trifluoromethyl)cyclopropyl)ethyl)isoindoline-5-carboxamide] | 100 to 500 nM | ** (a Y value (shown as**) of 20%<Y≤35%) |
| O=C1CCC(N2Cc3cc(C(=O)N[C@H](c4cccc(OC5CC5)c4)C(F)(F)F)ccc3C2=O)C(=O)N1 (stereo partly drawn) [Example 122, N-((R)-1-(3-cyclopropoxyphenyl)-2,2,2-trifluoroethyl)-2-(2,6-dioxopiperidin-3-yl)-1-oxoisoindoline-5-carboxamide] | < 100 nM | * (a Y value (shown as *) of 0<Y≤20%) |
| O=C1CCC(N2Cc3cc(C(=O)N[C@H](c4ccc(N5CCOCC5)cc4)C(F)(F)F)ccc3C2=O)C(=O)N1 (stereo partly drawn) [Example 204, 2-(2,6-dioxopiperidin-3-yl)-1-oxo-N-((R)-2,2,2-trifluoro-1-(4-morpholinophenyl)ethyl)isoindoline-5-carboxamide] | < 100 nM | * (a Y value (shown as *) of 0<Y≤20%) |
| O=C1CCC(N2Cc3cc(C(=O)N[C@H](c4cccc(OC(F)(F)F)c4)C(F)(F)F)ccc3C2=O)C(=O)N1 (stereo partly drawn) [Example 58, 2-(2,6-dioxopiperidin-3-yl)-1-oxo-N-((R)-2,2,2-trifluoro-1-(3-(trifluoromethoxy)phenyl)ethyl)isoindoline-5-carboxamide] | < 100 nM | * (a Y value (shown as *) of 0<Y≤20%) |
| O=C1CCC(N2Cc3cc(C(=O)NC(C4CCC5(CC4)CC(O)C5)C(F)(F)F)ccc3C2=O)C(=O)N1 (stereo not shown) [Example 181, 2-(2,6-dioxopiperidin-3-yl)-1-oxo-N-(2,2,2-trifluoro-1-(2-hydroxyspiro[3.5]nonan-7-yl)ethyl)isoindoline-5-carboxamide] | 100 to 500 nM | * (a Y value (shown as *) of 0<Y≤20%) |
| Cn1cc([C@@H](NC(=O)c2ccc3c(c2)CN(C2CCC(=O)NC2=O)C3=O)C(F)(F)F)cn1 (stereo partly drawn) [Example 70, 2-(2,6-dioxopiperidin-3-yl)-1-oxo-N-((R)-2,2,2-trifluoro-1-(1-methyl-1H-pyrazol-4-yl)ethyl)isoindoline-5-carboxamide] | 100 to 500 nM | ** (a Y value (shown as**) of 20%<Y≤35%) |

Second part, the compound after the results:

| DC50 | Y | Structure (SMILES) |
| --- | --- | --- |
| 100 to 500 nM | ** (a Y value (shown as**) of 20%<Y≤35%) | O=C1CCC(N2Cc3cc(C(=O)N[C@H](c4cccc(C(F)(F)F)c4)C(F)(F)F)c(F)cc3C2=O)C(=O)N1 (stereo partly drawn) [Example 90, 2-(2,6-dioxopiperidin-3-yl)-6-fluoro-1-oxo-N-((R)-2,2,2-trifluoro-1-(3-(trifluoromethyl)phenyl)ethyl)isoindoline-5-carboxamide] |
| 100 to 500 nM | ** (a Y value (shown as**) of 20%<Y≤35%) | O=C1CCC(N2Cc3c(ccc(C(=O)N[C@H](c4ccc(Cl)cc4Cl)C(F)(F)F)c3F)C2=O)C(=O)N1 (stereo partly drawn) [Example 164, N-((R)-1-(2,4-dichlorophenyl)-2,2,2-trifluoroethyl)-2-(2,6-dioxopiperidin-3-yl)-4-fluoro-1-oxoisoindoline-5-carboxamide] |
| 100 to 500 nM | ** (a Y value (shown as**) of 20%<Y≤35%) | O=C1CCC(N2Cc3c(ccc(C(=O)N[C@H](c4cccc(OC(F)(F)F)c4)C(F)(F)F)c3F)C2=O)C(=O)N1 (stereo partly drawn) [Example 120, 2-(2,6-dioxopiperidin-3-yl)-4-fluoro-1-oxo-N-((R)-2,2,2-trifluoro-1-(3-(trifluoromethoxy)phenyl)ethyl)isoindoline-5-carboxamide] |
| < 100 nM | * (a Y value (shown as *) of 0<Y≤20%) | CN(C)Cc1ccc([C@@H](NC(=O)c2ccc3c(c2F)CN(C2CCC(=O)NC2=O)C3=O)C(F)(F)F)cc1 (stereo partly drawn) [Example 186, N-((R)-1-(4-((dimethylamino)methyl)phenyl)-2,2,2-trifluoroethyl)-2-(2,6-dioxopiperidin-3-yl)-4-fluoro-1-oxoisoindoline-5-carboxamide] |
| < 100 nM | * (a Y value (shown as *) of 0<Y≤20%) | O=C1CCC(N2Cc3c(ccc(C(=O)N[C@H](c4ncc(Cl)cc4Cl)C(F)(F)F)c3F)C2=O)C(=O)N1 (stereo partly drawn) [Example 178, N-((R)-1-(3,5-dichloropyridin-2-yl)-2,2,2-trifluoroethyl)-2-(2,6-dioxopiperidin-3-yl)-4-fluoro-1-oxoisoindoline-5-carboxamide] |
| < 100 nM | * (a Y value (shown as *) of 0<Y≤20%) | O=C1CCC(N2Cc3cc(C(=O)N[C@H](c4ncc(Cl)cc4Cl)C(F)(F)F)ccc3C2=O)C(=O)N1 (stereo partly drawn) [Example 184, N-((R)-1-(3,5-dichloropyridin-2-yl)-2,2,2-trifluoroethyl)-2-(2,6-dioxopiperidin-3-yl)-1-oxoisoindoline-5-carboxamide] |
| 100 to 500 nM | ** (a Y value (shown as**) of 20%<Y≤35%) | O=C1CCC(N2Cc3cc(C(=O)N[C@H](c4ccccn4)C(F)(F)F)ccc3C2=O)C(=O)N1 (stereo partly drawn) [Example 48, 2-(2,6-dioxopiperidin-3-yl)-1-oxo-N-((R)-2,2,2-trifluoro-1-(pyridin-2-yl)ethyl)isoindoline-5-carboxamide] |
| < 100 nM | * (a Y value (shown as *) of 0<Y≤20%) | O=C1CCC(N2Cc3cc(C(=O)N[C@H](c4ncc(F)cc4Cl)C(F)(F)F)ccc3C2=O)C(=O)N1 (stereo partly drawn) [Example 175, N-((R)-1-(3-chloro-5-fluoropyridin-2-yl)-2,2,2-trifluoroethyl)-2-(2,6-dioxopiperidin-3-yl)-1-oxoisoindoline-5-carboxamide] |
| < 100 nM | * (a Y value (shown as *) of 0<Y≤20%) | O=C1CCC(N2Cc3cc(C(=O)N[C@H](c4ccc(F)cc4F)C(F)(F)F)ccc3C2=O)C(=O)N1 (stereo partly drawn) [Example 80, N-((R)-1-(2,4-difluorophenyl)-2,2,2-trifluoroethyl)-2-(2,6-dioxopiperidin-3-yl)-1-oxoisoindoline-5-carboxamide] |
| < 100 nM | * (a Y value (shown as *) of 0<Y≤20%) | O=C1CC[C@H](N2Cc3cc(C(=O)N[C@H](c4ncc(Cl)cc4Cl)C(F)(F)F)ccc3C2=O)C(=O)N1 [Example 207, N-((R)-1-(3,5-dichloropyridin-2-yl)-2,2,2-trifluoroethyl)-2-((S)-2,6-dioxopiperidin-3-yl)-1-oxoisoindoline-5-carboxamide] |
| < 100 nM | * (a Y value (shown as *) of 0<Y≤20%) | N#Cc1ccc([C@@H](NC(=O)c2ccc3c(c2)CN(C2CCC(=O)NC2=O)C3=O)C(F)(F)F)cc1 (stereo partly drawn) [Example 63, N-((R)-1-(4-cyanophenyl)-2,2,2-trifluoroethyl)-2-(2,6-dioxopiperidin-3-yl)-1-oxoisoindoline-5-carboxamide] |
| < 100 nM | ** (a Y value (shown as**) of 20%<Y≤35%) | O=C1CCC(N2Cc3cc(C(=O)N[C@H](c4cccc(F)c4)C(F)(F)F)ccc3C2=O)C(=O)N1 (stereo partly drawn) [Example 37, 2-(2,6-dioxopiperidin-3-yl)-1-oxo-N-((R)-2,2,2-trifluoro-1-(3-fluorophenyl)ethyl)isoindoline-5-carboxamide] |
| < 100 nM | * (a Y value (shown as *) of 0<Y≤20%) | O=C1CCC(N2Cc3cc(C(=O)N[C@H](c4ccc(F)cc4Cl)C(F)(F)F)ccc3C2=O)C(=O)N1 (stereo partly drawn) [Example 72, N-((R)-1-(2-chloro-4-fluorophenyl)-2,2,2-trifluoroethyl)-2-(2,6-dioxopiperidin-3-yl)-1-oxoisoindoline-5-carboxamide] |
| < 100 nM | ** (a Y value (shown as**) of 20%<Y≤35%) | O=C1CCC(N2Cc3cc(C(=O)N[C@H](CC(F)(F)F)c4cccc(Cl)c4)ccc3C2=O)C(=O)N1 (stereo partly drawn) [Example 194, N-((R)-1-(3-chlorophenyl)-3,3,3-trifluoropropyl)-2-(2,6-dioxopiperidin-3-yl)-1-oxoisoindoline-5-carboxamide] |
